In ChEMBL document CHEMBL3044773, “Adulticidal activity of phthalides identified in Cnidium officinale rhizome to B- and Q-biotypes of Bemisia tabaci” (2011):
≈ marks a conversion by molar mass, not a printed value.

Key:
Format in all cases: functional
Bemisia tabaci [1] = assay: Biotype susceptibility ratio, ratio of LC50 for female adult Bemisia tabaci biotype Q (sweet potato whitefly) to LC50 for female adult Bemisia tabaci biotype B
Bemisia tabaci [2] = assay: Adulticidal activity against female Bemisia tabaci biotype B (sweet potato whitefly) in cucumber leaves assessed as residual contact toxicity treated for 30 secs before adult insect infestation measured after 24 hr by leaf dip bioassay; conditions: foliar
Bemisia tabaci [3] = assay: Adulticidal activity against female Bemisia tabaci biotype Q (sweet potato whitefly) in cucumber leaves assessed as residual contact toxicity treated for 30 secs before adult insect infestation measured after 24 hr by leaf dip bioassay; conditions: foliar

| SMILES | RatioLC50 (Bemisia tabaci [1]) | LC50 (Bemisia tabaci [2]) [µg/mL] | LC50 (Bemisia tabaci [3]) [µg/mL] |
| --- | --- | --- | --- |
| CCC/C=C1\OC(=O)C2=C1CCC=C2 [LIGUSTILIDE] | 0.9 | 268 (≈ 1410 µM) | 254 (≈ 1340 µM) |
| C/C(=N\C#N)N(C)Cc1ccc(Cl)nc1 [ACETAMIPRID] | 31.4 | 11.6 (≈ 52.1 µM) | 364 (≈ 1640 µM) |
| CCC/C=C1\OC(=O)c2ccccc21 [Z-butylidenephthalide] | 2.3 | 254 (≈ 1350 µM) | 586 (≈ 3110 µM) |
| CN1COCN(Cc2cnc(Cl)s2)/C1=N\[N+](=O)[O-] [THIAMETHOXAM] | >1764.7 | 1.7 (≈ 5.83 µM) | > 3000 |
| CC(C)(C)c1ccc(CSc2cnn(C(C)(C)C)c(=O)c2Cl)cc1 [PYRIDABEN] | 1.6 | 129 (≈ 354 µM) | 211 (≈ 578 µM) |
| CCCC[C@@H]1OC(=O)c2ccccc21 [(3S)-BUTYLPHTHALIDE] | 1 | 339 (≈ 1780 µM) | 338 (≈ 1780 µM) |
| COP(=O)(OC)OC=C(Cl)Cl [DICHLORVOS] | 1.2 | 182 (≈ 825 µM) | 224 (≈ 1010 µM) |
| CCN(CC)c1nc(C)cc(OP(=S)(OC)OC)n1 [PIRIMIPHOS METHYL] | 1.3 | 188 (≈ 616 µM) | 235 (≈ 770 µM) |
| O=[N+]([O-])/N=C1\NCCN1Cc1ccc(Cl)nc1 [IMIDACLOPRID] | >428.6 | 7 (≈ 27.4 µM) | > 3000 |
| CC1(C)C(C=C(Cl)Cl)C1C(=O)OC(C#N)c1cccc(Oc2ccccc2)c1 (stereo not drawn) [ALPHA-CYPERMETHRIN] | 1.4 | 337 (≈ 809 µM) | 482 (≈ 1160 µM) |
